# Assay results reported in PubChem BioAssay AID518 (Sanford-Burnham Center for Chemical Genomics, 2006).
# pIC50: −log10 of the molar value.
# Biological target: Alkaline phosphatase, tissue-nonspecific isozyme (Homo sapiens) (UniProt P05186)
# Experiment: human TNAP enzyme inhibitors, biochemical, luminescent (AID 518)
# Settings: purified TNAP enzyme, luminescent substrate readout
# Alkaline phosphatase, tissue-nonspecific isozyme (Homo sapiens), sequence (P05186 whole entry, looked up): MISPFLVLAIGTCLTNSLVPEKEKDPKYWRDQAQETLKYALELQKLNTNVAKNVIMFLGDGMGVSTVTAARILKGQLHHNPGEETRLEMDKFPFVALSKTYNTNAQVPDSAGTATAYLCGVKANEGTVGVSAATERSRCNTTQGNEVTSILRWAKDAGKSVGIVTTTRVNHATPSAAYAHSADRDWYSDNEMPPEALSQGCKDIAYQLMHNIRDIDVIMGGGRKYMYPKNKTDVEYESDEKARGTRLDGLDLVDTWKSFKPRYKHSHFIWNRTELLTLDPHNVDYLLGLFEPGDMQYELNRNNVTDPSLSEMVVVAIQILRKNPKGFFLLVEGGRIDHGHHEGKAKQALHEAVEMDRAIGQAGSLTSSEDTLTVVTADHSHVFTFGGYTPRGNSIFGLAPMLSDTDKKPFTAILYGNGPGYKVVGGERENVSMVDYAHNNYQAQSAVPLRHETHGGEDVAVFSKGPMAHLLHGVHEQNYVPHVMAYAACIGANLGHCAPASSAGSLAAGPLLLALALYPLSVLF
row,pIC50,SMILES
1,5.76,C/C(N)=C(/C#N)C(=O)CSc1n[nH]c(-c2ccccc2Br)n1
2,6.48,O=C1C2CC=CCC2C(=O)N1c1n[nH]c(Cc2ccccc2)n1 (stereo not drawn)
3,5.28,COCc1[nH]nc2c1C(c1cc(OC)c(O)c(OC)c1)C(C#N)=C(N)O2 (stereo not drawn)
